Values quoted from earlier work, collected in US20180055969A1, “BIPHASIC CERAMIC BONE SUBSTITUTE” (BONE SUPPORT AB, priority 2015, published 2018).

Test system: bone resorption
Conditions: for potency compared with etidronate: times as potent as etidronate; for potency relative to etidronate: value in parenthesis, etidronate as reference

Structure (SMILES) | potency compared with etidronate | potency relative to etidronate
O=P(O)(O)C(O)(Cn1ccnc1)P(=O)(O)O [zoledronate] | up to 10.000 times | 10000
O=P(O)(O)C(Cl)(Cl)P(=O)(O)O [Clodronate, clodronate] | 10 times | 
NCCCCCC(O)(P(=O)(O)O)P(=O)(O)O [neridronate] |  | 100
NCCCC(O)(P(=O)(O)O)P(=O)(O)O [alendronate] | 10-100 times | 500
O=P(O)(O)C(O)(Cc1cccnc1)P(=O)(O)O [risedronate] |  | 2000
CCCCCN(C)CCC(O)(P(=O)(O)O)P(=O)(O)O [ibandronate] |  | 1000
NCCC(O)(P(=O)(O)O)P(=O)(O)O [pamidronate] |  | 100
CN(C)CCC(O)(P(=O)(O)O)P(=O)(O)O [olpadronate] |  | 500
O=P(O)(O)C(Sc1ccc(Cl)cc1)P(=O)(O)O [tiludronate] | 10 times | 
